Measured values from EP0381656A1, “Alcohol-soluble/water-insoluble oil-containing antifreeze” (FIRST BRANDS CORPORATION, priority 1989, dated 1990).
Like-named read-outs stand apart in the source and are kept apart here.

How the values were obtained:
[1] = Contact angle of polypropylene glycol oil drop on surface-modified metal (Goniometer); format: physicochemical
[2] = as above; format: physicochemical; conditions: 0.1 wt. percent surface modifier
Text: The effectiveness of a surface modifier compound in modifying the metal surface to be treated with a alcohol-soluble/water-insoluble oil may be evaluated by first treating a metal surface with a selected surface modifier compound. A selected oil droplet is then placed on the modified metal surface and the contact angle measured using a Goniometer.
A series of contact angle measurements were made using for convenience, a polypropylene glycol having a molecular weight of about 1000 as the oil. The contact angle measurement is made by placing the drop of polypropylene glycol on an aluminum surface submerged in a solution having 0.1 wt. percent of a selected surface modifier compound in an aqueous working antifreeze solution having 67% weight percent water, a reserve alkalinity of 50, in borate buffered glycol and having a selected pH of approximately 8. The measured contact angles were as follows:
Several additional surface modifiers were evaluated according to the above procedure to determine their use in wetting the surface of one or more metals commonly employed in automotive cooling systems. The contact angles for aluminum (Al) cast iron (Fe), steel, brass, ASTM solder (ASTM), copper (Cu) and Modine solder (Modine) were measured according to the procedure of this Example 2 using the following surface modifiers: […]

[3] = format: physicochemical
Description: The "alcohol-soluble/water-insoluble oil" (component (b)) is preferably characterized as having a minimum solubility in the selected alcohol of at least about 0.4 wt. % at 25°C at 1 atm pressure, preferably greater than 1.0 wt, % at 25°C at 1 atm pressure. The "alcohol-soluble/-water-insoluble oil" component is further characterized as being practically insoluble in a 50/50 (weight basis) mixture of the alcohol and water such that the alcohol-soluble/water-insoluble oil has a solubility in the alcohol/water mixture of less than about 0.25 wt. % at 25°C and a pressure of 1 atm, preferably less than about 0.05 at 25°C and a pressure of 1 atm. The solubility of the alcohol-soluble/water-insoluble oil in the alcohol or alcohol/water may be determined by equilibrating a concentration sequence of the oil in the alcohol under stirred conditions. After saturation for 2 hours at the specified temperature, any excess over saturation is estimated from the appearance of the solution. Insolubility is easily detected by visual observation. Formation of two distinctive phases or a turbid suspension indicates substantial insolubility. Turbidity and transmittance can be used to objectively determine if any insoluble material is present as a suspension. For example, when ethylene glycol (EG) or 1/1 mixture of EG/water are used for calibration, they both have a turbidity of 0.7 NTU (Nephelometric Turbidity Unit as measured with the HACH model 2100A turbidimeter) and 100% transmittance (or absorbance=0) measured with filtered light with 470nm wavelength using a Brinkmann PC/600 spectrophotometer. […] When 0.6% hexanol was added to the 1/1 EG/water solution, the turbidity […] to 1.9 NTU and the transmittance decreased to 98% (absorbance of 0.01). When 1% hexanol was added to 1/1 EG/water, the turbidity increased to 3 NTU and the transmittance decreased to 93% (absorbance of 0.03). […]

CONTACT ANGLES (At 5 Minutes) Modine Solder ([1]; 0.02% surface modifier) | CONTACT ANGLES (At 5 Minutes) Modine Solder ([1]; 0.05% surface modifier) | CONTACT ANGLES (At 5 Minutes) Modine Solder ([1]; 0.1% surface modifier) | turbidity ([3]; 0.6% in 1/1 EG/water) | turbidity ([3]; 1% in 1/1 EG/water) | Compound | CONTACT ANGLES (At 5 Minutes) ASTM Solder [2] | CONTACT ANGLES (At 5 Minutes) Al [2] | CONTACT ANGLES (At 5 Minutes) Brass [2] | CONTACT ANGLES (At 5 Minutes) Cu [2] | CONTACT ANGLES (At 5 Minutes) Fe [2] | CONTACT ANGLES (At 5 Minutes) Steel [2] | turbidity and transmittance ([3]; below the solubility limit (5% in EG and 0.2% in 1/1 EG/water))
68 ° | 52 ° | 51 ° |  |  | CCCCCCCC/C=C\CCCCCCCC(=O)O [oleic acid] |  |  |  |  |  |  | 
 | 117 ° |  |  |  | CCCCCCCCCCCC(=O)O [lauric acid] |  |  |  |  |  |  | 

More lines, now with the values behind:

Compound | CONTACT ANGLES (At 5 Minutes) Modine Solder ([1]; 0.02% surface modifier) | CONTACT ANGLES (At 5 Minutes) Modine Solder ([1]; 0.05% surface modifier) | CONTACT ANGLES (At 5 Minutes) Modine Solder ([1]; 0.1% surface modifier) | turbidity ([3]; 0.6% in 1/1 EG/water) | turbidity ([3]; 1% in 1/1 EG/water) | CONTACT ANGLES (At 5 Minutes) ASTM Solder [2] | CONTACT ANGLES (At 5 Minutes) Al [2] | CONTACT ANGLES (At 5 Minutes) Brass [2] | CONTACT ANGLES (At 5 Minutes) Cu [2] | CONTACT ANGLES (At 5 Minutes) Fe [2] | CONTACT ANGLES (At 5 Minutes) Steel [2] | turbidity and transmittance ([3]; below the solubility limit (5% in EG and 0.2% in 1/1 EG/water))
BUO(PO)₅C₃H₆5 Si (CH₃O)₃ [PO functional silane] |  |  | 138 ° |  |  | 138 ° | 139 ° | 63 ° | 27 ° | 90 ° | 65 ° | 
C₁₅hydroxyalkanesulfonate |  |  | 120 ° |  |  | 150 ° | 145 ° | 57 ° | 58 ° | 108 ° | 160 ° | 
CCCCCCO [hexanol] |  |  |  | 1.9 NTU | 3 NTU |  |  |  |  |  |  | stayed essentially the same as that of the solvent
